Measured values as given in article PMC10108345, “Differentiating Inhibition Selectivity and Binding Affinity of Isocitrate Dehydrogenase 1 Variant Inhibitors” (Journal of Medicinal Chemistry, 2023).

Experiments:
IDH1 R132H [1] = target: T1, IDH1 R132H (Homo sapiens, UniProt O75874, R132H); assay: 1H NMR (700 MHz) reaction monitoring, IDH1 R132H-catalysed conversion of 2OG to 2HG; format: biochemical; details: 1 μM IDH1 R132H, 20 μM compound, over […]; in words
T1 construct: made in house; host or cells: Escherichia coli BL21(DE3) pLyS
Protocol: Nuclear magnetic resonance (NMR) reaction monitoring was performed at 298 K using a Bruker AVIII 700 MHz NMR spectrometer with a 5 mm inverse triple-carbon-inverse (TCI) cryoprobe in 5 mm tubes (Norell). Data were recorded with a relaxation delay of 2 s and 32 scans, employing a pulse sequence with water suppression (^1H excitation sculpting suppression with perfect-echo using a 2 ms Sinc selective inversion pulse). There is a time delay of 184 s between each acquired spectrum over the time-course experiment. Conversion of 2OG to 2HG catalyzed by IDH1 R132H was monitored using 500 μL of 1 μM IDH, 20 μM compound [0.4% (v/v) DMSO, 10 min pre-incubation with IDH], 10 mM MgCl2, 1.5 mM NADPH, and 1.5 mM 2OG, in 50 mM tris-D11-HCl, pH 7.5 in 90% H2O/10% D2O (v/v). Data were processed with TopSpin 3.6.1 software. Signals corresponding to NADPH, NADP^+, 2OG, and 2HG at each time point over a total of 2 to 3 h were integrated, converted to concentrations, and plotted against time. The difference in concentrations in the linear range of the reaction profile was converted to % residual activity with the DMSO control defined as the 100% residual activity reference.

IDH1 R132H [2] = target: T1, IDH1 R132H; assay: Isothermal titration calorimetry (ITC), IDH1 R132H; format: binding; details: 40 μM IDH1, 50 mM tris-HCl pH 7.5, 25 °C
Protocol: ITC was conducted using a Malvern MicroCal PEAQ-ITC Automated machine (Malvern Panalytical). In general, IDH1 was prepared in 50 mM tris–HCl, pH 7.5, and the compounds were dissolved in the same buffer. 400 μL of cell solution containing 40 μM IDH1 [4% (v/v) DMSO] and 200 μL of the titrant containing 200 or 400 μM compound [2% or 4% (v/v) DMSO] were transferred to an ITC plate (Malvern Panalytical WEL020854-010). […] The injection setup consisted of 19 injections, with 1 initial injection of 0.4 μL and 18 subsequent injections of 2.0 μL each with 150 s between the injections. Thermodynamic parameters were obtained using MicroCal PEAQ-ITC analysis software.

IDH1 R132H [3] = target: T1, IDH1 R132H; assay: Ligand-observed 1H NMR (CPMG-edited, 700 MHz) binding, IDH1 R132H; details: line broadening, 10 μM inhibitor, 50 mM tris-D11-HCl pH 7.5
Protocol: Additional solvent presaturation was applied for 2 s. Samples contained 160 μL of 10 μM compound (0.2% DMSO) in 50 mM tris-D11-HCl, pH 7.5 in 90% H2O/10% D2O (v/v). […] 200 or 400 scans per IDH concentration were recorded, and signals corresponding to the compound were integrated and processed using TopSpin 3.6.1 software.

wt IDH1 [4] = target: T2, wt IDH1 (Homo sapiens, UniProt O75874); assay: Circular dichroism (CD) melting temperature, wt IDH1; format: binding; details: inhibitor 42 μM, IDH 4.2 μM (0.2 mg/mL); read-out: Δ Tm/°C by CD wt IDH1
T2 construct: made in house; host or cells: Escherichia coli BL21(DE3) pLyS
Protocol: CD spectra were acquired using a Chirascan CD spectrometer (Applied Photophysics) with a Peltier temperature-control cell holder. Experiments were carried out in a 0.1 cm path length quartz cuvette at 20 °C. […] Spectra were averaged (n = 3) and smoothed (window size = 7) using the Savitzky–Golay filter. The mean residue ellipticity (MRE) was calculated according to the formula [drawing 1] where θ is the degree of ellipticity, N is the number of amino acids, c is the concentration (mol/L), and l is the path length (cm).
Measurements were conducted in 2 °C increments. The melting temperature was calculated using a Boltzmann sigmoidal model in GraphPad Prism v5.04.

wt IDH1 [5] = target: T2, wt IDH1; assay: Absorbance turnover assay (NADPH, 340 nm), wt IDH1-catalyzed conversion of isocitrate to 2OG; format: biochemical; details: wt IDH1 (2 nM), isocitrate to 2OG; 100 mM tris-HCl, 10 mM MgCl2, pH 8.0; read-out: IC50/nM wt IDH1
Protocol: (Figure 3, Scheme 1). […] We employed ^1H NMR (700 MHz) spectroscopy to simultaneously monitor NADPH, NADP^+, 2OG, and 2HG levels (Figure S3) in order to validate observations from the absorbance assays.
IDH1 activities were measured spectrophotometrically by monitoring changes in NADPH absorbance at 340 nm.[10] […] The difference in absorbance, ΔA340, in the linear range of the reaction profile was converted to % residual activity using a DMSO control as the 100% residual activity reference. […] Experiments were performed in (at least) triplicate. The standard assay buffer for IDH1 consists of 100 mM tris–HCl, 10 mM MgCl2, 0.005% (v/v) Tween 20, pH 8.0, 0.2 mM DTT, and 0.1 mg/mL BSA. In general, compounds [25 μL, 0.4% (v/v) DMSO] were pre-incubated with IDH1 (25 μL) for 12 min, followed by addition of DL-isocitrate/2OG (25 μL) and NADP^+/NADPH (25 μL) to initiate the reaction. The substrate/cofactor concentrations were optimized by determining KM values for substrates/cofactors as described.[10]

T1 sequence (O75874 whole entry R132H): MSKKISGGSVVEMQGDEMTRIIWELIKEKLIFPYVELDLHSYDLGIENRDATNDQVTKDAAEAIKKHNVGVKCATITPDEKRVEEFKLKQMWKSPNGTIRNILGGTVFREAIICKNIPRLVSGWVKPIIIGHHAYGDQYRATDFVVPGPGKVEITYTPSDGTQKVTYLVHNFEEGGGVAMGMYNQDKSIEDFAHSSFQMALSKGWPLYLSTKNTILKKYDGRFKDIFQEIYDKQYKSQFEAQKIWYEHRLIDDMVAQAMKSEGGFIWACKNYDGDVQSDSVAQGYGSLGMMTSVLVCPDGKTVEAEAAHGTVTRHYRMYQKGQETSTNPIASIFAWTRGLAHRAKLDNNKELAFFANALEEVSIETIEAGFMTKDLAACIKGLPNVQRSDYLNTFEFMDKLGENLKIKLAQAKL
T2 sequence (O75874 whole entry): as the sequence (O75874 whole entry R132H) above, with H132R counted along it

With `Cc1ccccc1C(C(=O)NC1CCCCC1)N(C(=O)Cn1ccnc1C)c1cccc(F)c1` (centres unmarked) [AGI-5198] the “inhibition of IDH1 R132H catalysed conversion of 2OG to 2HG monitored by 1H NMR” value (IDH1 R132H [1]) was “weaker inhibition”, the Kd (IDH1 R132H [2]) was greater than 400 µM and the Kd (IDH1 R132H [3]) was 8.6 µM. For the same molecule, the ΔTm at 42 µM (wt IDH1 [4]) was 2.9 °C and the IC50 (wt IDH1 [5]) was greater than 10000 nM.
